Test results from patent publication US8871934B2, “Fluorene compound and pharmaceutical use thereof” (Japan Tobacco Inc., priority 2008, dated 2014).
pIC50: −log10 of the molar value.

Target: human PDHK2 (hPDHK2) (Homo sapiens (Human), UniProt Q15119)
Assay: Inhibitory action of PDHK activity in vitro (kinase reaction, residual PDH activity measured)
Format: biochemical
Settings: PDHK inhibitory activity IC50 (μmol/L)
Description: In the case of human PDHK2 (hPDHK2, Genbank Accession No. NM_002611), modified hPDHK2 cDNA wherein FLAG-Tag sequence is added to the N terminal by a polymerase linkage reaction was prepared based on hPDHK2 cDNA clone (pReceiver-M01/PDK2-GeneCopoeia), and cloned into a vector (pET17b-Novagen). The recombinant construct was transformed into Escherichia coli (DH5α-TOYOBO). The recombinant clones were identified, plasmid DNA was isolated and subjected to the DNA sequence analysis. One clone which had the expected nucleic acid sequence was selected for expression work.
During the assay, the hPDHK2 enzyme concentration was set to the minimal concentration at which PDH is inhibited the most.
0.05 U/mL PDH (porcine heart PDH complex, Sigma P7032) and 1.6 μg/mL hPDHK2 were mixed in a buffer (50 mmol/L 3-morpholinopropanesulfonic acid (pH 7.0), 20 mmol/L dipotassium hydrogen phosphate, 60 mmol/L potassium chloride, 2 mmol/L magnesium chloride, 0.4 mmol/L EDTA, and 0.2% Pluronic F-68, 2 mmol/L dithiothreitol), the mixture was incubated at 4° C. overnight to give PDH/hPDHK2 complex. The test compound was diluted with dimethyl sulfoxide (DMSO). PDH/hPDHK2 complex (20 μL), test compound (1.5 μL) and 3.53 μmol/L ATP (diluted with buffer, 8.5 μL) were added to a half area 96 well UV-transparent microplate (Corning 3679), and PDHK reaction was performed at room temperature for 45 min. Instead of the test compound, DMSO (1.5 μL) was added to a control well. DMSO (1.5 μL) was added instead of the test compound to a blank well for the measurement of the maximum rate of PDH reaction, and hPDHK2 was not added. Than, 10 μL of substrates (5 mmol/L sodium pyruvate, 5 mmol/L Coenzyme A, 12 mmol/L NAD, and 5 mmol/L thiamine pyrophosphate, diluted with buffer) was added. The mixture was incubated at room temperature for 90 min, and the residual PDH activity was measured. The absorbance at 340 nm before and after PDH reaction was measured on a microplate reader to detect NADH produced by the PDH reaction. The PDHK inhibitory rate (%) of the test compound was calculated from the formula [{(PDH activity of test compound—PDH activity of control)/PDH activity of blank—PDH activity of control)}×100]. The IC50 value was calculated from the concentrations of the test compound at two points enclosing 50% inhibition of the PDHK activity.

Row | SMILES | pIC50
1 | CNC(=O)Cn1cc(-c2cc(C)cc3c2-c2ccccc2[C@]3(O)C(F)(F)F)cn1 (stereo in doubt) [compound 533] | 7.82
2 | CNC(=O)Cn1cc(-c2cc(F)cc3c2-c2ccccc2[C@]3(O)C(F)(F)F)cn1 (stereo in doubt) [compound 534] | 7.80
3 | O=C(O)CCCn1cc(-c2cc(F)cc3c2-c2ccccc2[C@]3(O)C(F)(F)F)cn1 (stereo in doubt) [compound 537] | 7.46
4 | O=C(O)CCn1cc(-c2cc(F)cc3c2-c2ccccc2[C@]3(O)C(F)(F)F)cn1 (stereo in doubt) [compound 543] | 7.44
5 | OC1(Cn2cc(-c3cc(F)cc4c3-c3ccccc3[C@]4(O)C(F)(F)F)cn2)CCCCC1 (stereo in doubt) [compound 544] | 7.66
6 | OCC1(n2cc(-c3cc(F)cc4c3-c3ccccc3[C@]4(O)C(F)(F)F)cn2)CCCCC1 (stereo in doubt) [compound 545] | 7.77
7 | Cc1cc(-c2cnn(C3(CO)CCCC3)c2)c2c(c1)[C@@](O)(C(F)(F)F)c1ccccc1-2 (stereo in doubt) [compound 546] | 7.82
8 | OCC1(n2cc(-c3cc(F)cc4c3-c3ccccc3[C@]4(O)C(F)(F)F)cn2)CCCC1 (stereo in doubt) [compound 548] | 7.80
9 | O=C(O)C1(n2cc(-c3cc(F)cc4c3-c3ccccc3[C@]4(O)C(F)(F)F)cn2)CCCC1 (stereo in doubt) [compound 549] | 7.57
10 | Cc1cc(-c2cnn(CC(=O)O)c2)c2c(c1)[C@@](O)(C(F)(F)F)c1ccccc1-2 (stereo in doubt) [compound 550] | 7.16
11 | O=C(O)Cn1cc(-c2cc(F)cc3c2-c2ccccc2[C@]3(O)C(F)(F)F)cn1 (stereo in doubt) [compound 551] | 6.96

Same assay, conditions: PDHK inhibitory activity, class symbol of IC50

Row | SMILES | pIC50
12 | CNC(=O)Cn1cc(-c2cc(C)cc3c2-c2ccccc2[C@]3(O)C(F)(F)F)cn1 (stereo in doubt) [compound 533] | > 7.00
13 | CNC(=O)Cn1cc(-c2cc(F)cc3c2-c2ccccc2[C@]3(O)C(F)(F)F)cn1 (stereo in doubt) [compound 534] | > 7.00
14 | O=C(O)CCCn1cc(-c2cc(F)cc3c2-c2ccccc2[C@]3(O)C(F)(F)F)cn1 (stereo in doubt) [compound 537] | > 7.00
15 | O=C(O)CCn1cc(-c2cc(F)cc3c2-c2ccccc2[C@]3(O)C(F)(F)F)cn1 (stereo in doubt) [compound 543] | > 7.00
16 | OC1(Cn2cc(-c3cc(F)cc4c3-c3ccccc3[C@]4(O)C(F)(F)F)cn2)CCCCC1 (stereo in doubt) [compound 544] | > 7.00
17 | OCC1(n2cc(-c3cc(F)cc4c3-c3ccccc3[C@]4(O)C(F)(F)F)cn2)CCCCC1 (stereo in doubt) [compound 545] | > 7.00
18 | Cc1cc(-c2cnn(C3(CO)CCCC3)c2)c2c(c1)[C@@](O)(C(F)(F)F)c1ccccc1-2 (stereo in doubt) [compound 546] | > 7.00
19 | OCC1(n2cc(-c3cc(F)cc4c3-c3ccccc3[C@]4(O)C(F)(F)F)cn2)CCCC1 (stereo in doubt) [compound 548] | > 7.00
20 | O=C(O)C1(n2cc(-c3cc(F)cc4c3-c3ccccc3[C@]4(O)C(F)(F)F)cn2)CCCC1 (stereo in doubt) [compound 549] | > 7.00
21 | Cc1cc(-c2cnn(CC(=O)O)c2)c2c(c1)[C@@](O)(C(F)(F)F)c1ccccc1-2 (stereo in doubt) [compound 550] | > 7.00
22 | O=C(O)Cn1cc(-c2cc(F)cc3c2-c2ccccc2[C@]3(O)C(F)(F)F)cn1 (stereo in doubt) [compound 551] | 6.00 to 7.00
23 | OC1(C(F)(F)F)c2ccccc2-c2ncccc21 (centres unmarked) [compound 1] | < 6.00
24 | Cc1cccc2c1-c1ccccc1C2(O)C(F)(F)F (centres unmarked) [compound 2] | < 6.00
25 | Cc1ccc2c(c1)C(O)(C(F)(F)F)c1ccccc1-2 (centres unmarked) [compound 3] | < 6.00
26 | OC1(C(F)(F)F)c2ccccc2-c2ccc(F)cc21 (centres unmarked) [compound 4] | < 6.00
27 | OC1(C(F)(F)F)c2ccccc2-c2ccc(Cl)cc21 (centres unmarked) [compound 5] | < 6.00
28 | OC1(C(F)(F)F)c2ccccc2-c2c(Cl)cccc21 (centres unmarked) [compound 6] | < 6.00
29 | OC1(C(F)(F)F)c2ccccc2-c2ccc(Br)cc21 (centres unmarked) [compound 7] | < 6.00
30 | OC1(C(F)(F)F)c2ccccc2-c2cccc(Cl)c21 (centres unmarked) [compound 8] | < 6.00
31 | OC1(C(F)(F)F)c2ccccc2-c2cc(Cl)ccc21 (centres unmarked) [compound 9] | < 6.00
32 | Cc1ccc2c(c1)-c1ccccc1C2(O)C(F)(F)F (centres unmarked) [compound 10] | < 6.00
33 | OC1(C(F)(F)F)c2ccccc2-c2c(F)cccc21 (centres unmarked) [compound 11] | < 6.00
34 | OC1(C(F)(F)F)c2ccccc2-c2cc(F)ccc21 (centres unmarked) [compound 12] | < 6.00
35 | OC1(C(F)(F)F)c2ccccc2-c2cccc(F)c21 (centres unmarked) [compound 13] | < 6.00
36 | OC1(C(F)(F)F)c2cc(Cl)ccc2-c2ccc(Cl)cc21 [compound 14] | < 6.00
37 | Cc1cccc2c1-c1ncccc1C2(O)C(F)(F)F (centres unmarked) [compound 15] | < 6.00
38 | Cc1ccc2c(c1)C(O)(C(F)(F)F)c1cccnc1-2 (centres unmarked) [compound 16] | < 6.00
39 | Cc1ccc2c(c1)C(O)(C(F)(F)F)c1cccc(C)c1-2 (centres unmarked) [compound 17] | < 6.00

Same assay, conditions: read-out: PDHK inhibitory activity IC50

Row | SMILES | pIC50
40 | OC1(C(F)(F)F)c2ccccc2-c2ncccc21 (centres unmarked) [compound 1] | 5.66
41 | Cc1cccc2c1-c1ccccc1C2(O)C(F)(F)F (centres unmarked) [compound 2] | 5.64
42 | Cc1ccc2c(c1)C(O)(C(F)(F)F)c1ccccc1-2 (centres unmarked) [compound 3] | 5.80
43 | OC1(C(F)(F)F)c2ccccc2-c2ccc(F)cc21 (centres unmarked) [compound 4] | 5.64
44 | OC1(C(F)(F)F)c2ccccc2-c2ccc(Cl)cc21 (centres unmarked) [compound 5] | 5.93
45 | OC1(C(F)(F)F)c2ccccc2-c2c(Cl)cccc21 (centres unmarked) [compound 6] | 5.64
46 | OC1(C(F)(F)F)c2ccccc2-c2ccc(Br)cc21 (centres unmarked) [compound 7] | 5.84
47 | OC1(C(F)(F)F)c2ccccc2-c2cccc(Cl)c21 (centres unmarked) [compound 8] | 4.34
48 | OC1(C(F)(F)F)c2ccccc2-c2cc(Cl)ccc21 (centres unmarked) [compound 9] | 4.70
49 | Cc1ccc2c(c1)-c1ccccc1C2(O)C(F)(F)F (centres unmarked) [compound 10] | 4.51
50 | OC1(C(F)(F)F)c2ccccc2-c2c(F)cccc21 (centres unmarked) [compound 11] | 5.17
51 | OC1(C(F)(F)F)c2ccccc2-c2cc(F)ccc21 (centres unmarked) [compound 12] | 5.26
52 | OC1(C(F)(F)F)c2ccccc2-c2cccc(F)c21 (centres unmarked) [compound 13] | 4.80
53 | OC1(C(F)(F)F)c2cc(Cl)ccc2-c2ccc(Cl)cc21 [compound 14] | 4.25
54 | Cc1cccc2c1-c1ncccc1C2(O)C(F)(F)F (centres unmarked) [compound 15] | 4.79
55 | Cc1ccc2c(c1)C(O)(C(F)(F)F)c1cccnc1-2 (centres unmarked) [compound 16] | 4.71
56 | Cc1ccc2c(c1)C(O)(C(F)(F)F)c1cccc(C)c1-2 (centres unmarked) [compound 17] | 4.86
